# Structures can show the parent of a compound that is named as a salt.
# Legend:
# [1] = system: Staphlococcus aureus (S.a); test: Zone of inhibition, polyvinyl chloride film discs on inoculated agar; format: cell-based; settings: for Zone of Inhibition: PVC film; for Zones: PVC
# Protocol: (§1) In a two-liter, three-necked, round-bottom, flask equipped with a mechanical stirrer was placed 100 g of polyvinyl chloride, 590 g of reagent grade tetrahydrofuran, and 40.0 g of dioctylphthalate. This was stirred with gentle heating (35°-40° C.) for two hours to completely dissolve the polyvinyl chloride. Then, a barium/calcium salt of a fatty acid (3.5 g), a phosphite chelating agent (1.5 g), stearic Acid (0.25 g) and epoxidized soy bean oil (7.5 g), were mixed with 21 g of tetrahydrofuran and added to the polyvinyl chloride solution. After stirring at room temperature for 30 minutes, the solution was ready for use.
# (§2) Films containing the isothiazolones were cast by first preparing a 0.5 weight percent polyvinyl chloride solution by adding the isothiazolone to the polyvinyl chloride solution. Then, portions of the 0.5% solution were diluted to 0.1 and 0.05%. The films were drawn down on 12"×12" glass plates using a 50 mil-3" wide coating bar and the films were allowed to air dry for 48 hours.
# (§3) The films were cut into 1.25 cm discs and placed in agar plates inoculated with Staphlococcus aureus (S.a) or Echerichia coli (E.c.).
# Echerichia coli (E.c.) = test: as above; format: cell-based; settings: for Zone of Inhibition: PVC film; for Zones: PVC
# Protocol: as §1, §2, §3
# Aspergillis niger (A.n.) [2] = test: Growth of fungus on polyvinyl chloride film; format: cell-based; design: key: 0: zero (no growth); 5: five (heavy growth); settings: PVC film
# Protocol: as §1, §2
# (§4) In addition to zones of inhibition, the films were observed by growth of fungus on the film and rated from zero (no growth) to five (heavy growth).
# [3] = system: Aerobasidium pullulans (A.p); test: Growth of fungus on polyvinyl chloride film; format: cell-based; design: key: 0: zero (no growth); 5: five (heavy growth); settings: PVC film
# Protocol: as §1, §2, §4
# Solubility in H2O = format: physicochemical; settings: water
# Aspergillis niger (A.n.) [4] = test: Zone of inhibition, polyvinyl chloride film; format: cell-based; settings: PVC film
# [5] = system: Aerobasidium pullulans (A.p); test: Zone of inhibition, polyvinyl chloride film; format: cell-based; settings: PVC film
# Aspergillus niger = test: Minimum inhibitory concentration, fungistatic activity; format: cell-based; settings: Table III: Active Ingredient MIC
# Escherichia coli = test: Minimum inhibitory concentration, bacteriostatic activity; format: cell-based; settings: Table III: Active Ingredient MIC
# Aureobasidium pullulans = test: Minimum inhibitory concentration, fungistatic activity; format: cell-based; settings: Table III: Active Ingredient MIC
# Candida albicans (yeast) = test: as above; format: cell-based; settings: Table III: Active Ingredient MIC
# Staphylococcus aureus = test: Minimum inhibitory concentration, bacteriostatic activity; format: cell-based; settings: Table III: Active Ingredient MIC
# Pseudomonas aeruginosa = test: as above; format: cell-based; settings: Table III: Active Ingredient MIC
# P.a. = test: Zone of inhibition, silicone film; format: cell-based, Pseudomonas aeruginosa
# E.c. = test: Zone of inhibition, silicone rubber film discs on inoculated agar; format: cell-based, Echerichia coli; settings: Silicone
# From the text: as §3
# (§5) The films were cut into discs and tested as in example one against S.a. and E.c.
# S.a. = test: as above; format: cell-based, Staphlococcus aureus; settings: Silicone, S.a.
# From the text: as §3, §5
# [6] = system: Pseudomonas aeruginosa (P.a.); test: Zone of inhibition, polyvinyl chloride (vinyl) film discs; format: cell-based; settings: PVC
# Protocol: as §1, §3
# Discs were tested against Pseudomonas aeruginosa (P.a.). The 1.0% films gave a slight zone of inhibition while the 5.0% film gave a 1 mm zone of inhibition.
smiles,measurement,setting,value
"O=c1c(Cl)c(Cl)sn1CCc1ccccc1 [Compound 3, 4,5-Dichloro-N-- 2-phenethyl-isothiazolin-3-one]",Zone of Inhibition,[1]; 0.05%,1.8 mm
same,Zone of Inhibition,[1]; 0.1%,4.3 mm
same,Zone of Inhibition,[1]; 0.5%,10.8 mm
same,Zone of Inhibition,Echerichia coli (E.c.); 0.05%,0 mm
same,Zone of Inhibition,Echerichia coli (E.c.); 0.1%,0 mm
same,Zone of Inhibition,Echerichia coli (E.c.); 0.5%,1.8 mm
same,Growth on Film,Aspergillis niger (A.n.) [2]; 0.05%,1
same,Growth on Film,Aspergillis niger (A.n.) [2]; 0.1%,0
same,Growth on Film,Aspergillis niger (A.n.) [2]; 0.5%,0
same,Growth on Film,[3]; 0.05%,2
same,Growth on Film,[3]; 0.1%,0
same,Growth on Film,[3]; 0.5%,0
same,solubility,Solubility in H2O,96 µg/mL
same,Zone of Inhibition,Aspergillis niger (A.n.) [4]; 0.05%,0 mm
same,Zone of Inhibition,Aspergillis niger (A.n.) [4]; 0.1%,0 mm
same,Zone of Inhibition,Aspergillis niger (A.n.) [4]; 0.5%,4.8 mm
same,Zone of Inhibition,[5]; 0.05%,0 mm
same,Zone of Inhibition,[5]; 0.1%,0 mm
same,Zone of Inhibition,[5]; 0.5%,3.8 mm
"CCCCCCCn1sc(Cl)c(Cl)c1=O [Compound 6, 4,5-Dichloro-N--n-heptyl-isothiazolin-3-one]",Zone of Inhibition,[1]; 0.05%,0 mm
same,Zone of Inhibition,[1]; 0.1%,1.3 mm
same,Zone of Inhibition,[1]; 0.5%,4.3 mm
same,Zone of Inhibition,Echerichia coli (E.c.); 0.05%,0 mm
same,Zone of Inhibition,Echerichia coli (E.c.); 0.1%,0 mm
same,Zone of Inhibition,Echerichia coli (E.c.); 0.5%,0 mm
same,Growth on Film,Aspergillis niger (A.n.) [2]; 0.05%,0
same,Growth on Film,Aspergillis niger (A.n.) [2]; 0.1%,0
same,Growth on Film,Aspergillis niger (A.n.) [2]; 0.5%,0
same,Growth on Film,[3]; 0.05%,3
same,Growth on Film,[3]; 0.1%,2
same,Growth on Film,[3]; 0.5%,0
same,solubility,Solubility in H2O,25 µg/mL
same,Zone of Inhibition,Aspergillis niger (A.n.) [4]; 0.05%,0 mm
same,Zone of Inhibition,Aspergillis niger (A.n.) [4]; 0.1%,0 mm
same,Zone of Inhibition,Aspergillis niger (A.n.) [4]; 0.5%,0 mm
same,Zone of Inhibition,[5]; 0.05%,3 mm
same,Zone of Inhibition,[5]; 0.1%,1 mm
same,Zone of Inhibition,[5]; 0.5%,0 mm
O=c1cc(Cl)sn1Cc1ccc(Cl)cc1 [5-chloro-2-(p-chlorobenzyl)-4-isothiazolin-3-one],MIC,Aspergillus niger,4 µg/mL
same,MIC,Escherichia coli,8 µg/mL
same,MIC,Aureobasidium pullulans,8 µg/mL
same,MIC,Candida albicans (yeast),4 µg/mL
same,MIC,Staphylococcus aureus,4 µg/mL
same,MIC,Pseudomonas aeruginosa,8 µg/mL
"CN(C)C1C(=O)C(C(N)=O)=C(O)C2(O)C(=O)C3=C(O)c4c(O)cccc4C(C)(O)C3CC12 (stereo not drawn) [T, Tetracycline HCl, reference compound]",Zones,[1]; 1.0%,11.3 mm
same,Zones,[1]; 5.0%,19.8 mm
same,Zones,[1]; .04%,0 mm
same,Zones,[1]; .20%,0 mm
same,Zones,Echerichia coli (E.c.); 1.0%,0 mm
same,Zones,Echerichia coli (E.c.); .04%,0 mm
same,Zones,Echerichia coli (E.c.); .20%,5.8 mm
same,Zones,P.a.; 1.0%,0 mm
same,Zones,P.a.; 5.0%,0 mm
same,Zones,P.a.; .20%,0.3 mm
same,Zones,E.c.; 1.0%,9.8 mm
same,Zones,E.c.; 5.0%,19.8 mm
same,Zones,E.c.; .04%,0 mm
same,Zones,E.c.; .20%,5.8 mm
same,Zones,S.a.; 1.0%,21.3 mm
same,Zones,S.a.; 5.0%,26.3 mm
same,Zones,S.a.; .04%,6.3 mm
same,Zones,S.a.; .20%,15.8 mm
same,Zones,[6]; 1.0%,0 mm
same,Zones,[6]; 5.0%,0 mm
same,Zones,[6]; .04%,0 mm
same,Zones,[6]; .20%,0 mm

# From patent US4542169A, “Biomedical devices containing isothiazolones to control bacteria growth” (Rohm and Haas Company, priority 1983, dated 1985)
